Here are results for 35 compounds from patent US8410112B2, “Compounds useful as inhibitors of ATR kinase” (Vertex Pharmaceuticals Incorporated, priority 2008, dated 2013).

Each structure is given as a SMILES string.

T1 sequence (Q13535 whole entry): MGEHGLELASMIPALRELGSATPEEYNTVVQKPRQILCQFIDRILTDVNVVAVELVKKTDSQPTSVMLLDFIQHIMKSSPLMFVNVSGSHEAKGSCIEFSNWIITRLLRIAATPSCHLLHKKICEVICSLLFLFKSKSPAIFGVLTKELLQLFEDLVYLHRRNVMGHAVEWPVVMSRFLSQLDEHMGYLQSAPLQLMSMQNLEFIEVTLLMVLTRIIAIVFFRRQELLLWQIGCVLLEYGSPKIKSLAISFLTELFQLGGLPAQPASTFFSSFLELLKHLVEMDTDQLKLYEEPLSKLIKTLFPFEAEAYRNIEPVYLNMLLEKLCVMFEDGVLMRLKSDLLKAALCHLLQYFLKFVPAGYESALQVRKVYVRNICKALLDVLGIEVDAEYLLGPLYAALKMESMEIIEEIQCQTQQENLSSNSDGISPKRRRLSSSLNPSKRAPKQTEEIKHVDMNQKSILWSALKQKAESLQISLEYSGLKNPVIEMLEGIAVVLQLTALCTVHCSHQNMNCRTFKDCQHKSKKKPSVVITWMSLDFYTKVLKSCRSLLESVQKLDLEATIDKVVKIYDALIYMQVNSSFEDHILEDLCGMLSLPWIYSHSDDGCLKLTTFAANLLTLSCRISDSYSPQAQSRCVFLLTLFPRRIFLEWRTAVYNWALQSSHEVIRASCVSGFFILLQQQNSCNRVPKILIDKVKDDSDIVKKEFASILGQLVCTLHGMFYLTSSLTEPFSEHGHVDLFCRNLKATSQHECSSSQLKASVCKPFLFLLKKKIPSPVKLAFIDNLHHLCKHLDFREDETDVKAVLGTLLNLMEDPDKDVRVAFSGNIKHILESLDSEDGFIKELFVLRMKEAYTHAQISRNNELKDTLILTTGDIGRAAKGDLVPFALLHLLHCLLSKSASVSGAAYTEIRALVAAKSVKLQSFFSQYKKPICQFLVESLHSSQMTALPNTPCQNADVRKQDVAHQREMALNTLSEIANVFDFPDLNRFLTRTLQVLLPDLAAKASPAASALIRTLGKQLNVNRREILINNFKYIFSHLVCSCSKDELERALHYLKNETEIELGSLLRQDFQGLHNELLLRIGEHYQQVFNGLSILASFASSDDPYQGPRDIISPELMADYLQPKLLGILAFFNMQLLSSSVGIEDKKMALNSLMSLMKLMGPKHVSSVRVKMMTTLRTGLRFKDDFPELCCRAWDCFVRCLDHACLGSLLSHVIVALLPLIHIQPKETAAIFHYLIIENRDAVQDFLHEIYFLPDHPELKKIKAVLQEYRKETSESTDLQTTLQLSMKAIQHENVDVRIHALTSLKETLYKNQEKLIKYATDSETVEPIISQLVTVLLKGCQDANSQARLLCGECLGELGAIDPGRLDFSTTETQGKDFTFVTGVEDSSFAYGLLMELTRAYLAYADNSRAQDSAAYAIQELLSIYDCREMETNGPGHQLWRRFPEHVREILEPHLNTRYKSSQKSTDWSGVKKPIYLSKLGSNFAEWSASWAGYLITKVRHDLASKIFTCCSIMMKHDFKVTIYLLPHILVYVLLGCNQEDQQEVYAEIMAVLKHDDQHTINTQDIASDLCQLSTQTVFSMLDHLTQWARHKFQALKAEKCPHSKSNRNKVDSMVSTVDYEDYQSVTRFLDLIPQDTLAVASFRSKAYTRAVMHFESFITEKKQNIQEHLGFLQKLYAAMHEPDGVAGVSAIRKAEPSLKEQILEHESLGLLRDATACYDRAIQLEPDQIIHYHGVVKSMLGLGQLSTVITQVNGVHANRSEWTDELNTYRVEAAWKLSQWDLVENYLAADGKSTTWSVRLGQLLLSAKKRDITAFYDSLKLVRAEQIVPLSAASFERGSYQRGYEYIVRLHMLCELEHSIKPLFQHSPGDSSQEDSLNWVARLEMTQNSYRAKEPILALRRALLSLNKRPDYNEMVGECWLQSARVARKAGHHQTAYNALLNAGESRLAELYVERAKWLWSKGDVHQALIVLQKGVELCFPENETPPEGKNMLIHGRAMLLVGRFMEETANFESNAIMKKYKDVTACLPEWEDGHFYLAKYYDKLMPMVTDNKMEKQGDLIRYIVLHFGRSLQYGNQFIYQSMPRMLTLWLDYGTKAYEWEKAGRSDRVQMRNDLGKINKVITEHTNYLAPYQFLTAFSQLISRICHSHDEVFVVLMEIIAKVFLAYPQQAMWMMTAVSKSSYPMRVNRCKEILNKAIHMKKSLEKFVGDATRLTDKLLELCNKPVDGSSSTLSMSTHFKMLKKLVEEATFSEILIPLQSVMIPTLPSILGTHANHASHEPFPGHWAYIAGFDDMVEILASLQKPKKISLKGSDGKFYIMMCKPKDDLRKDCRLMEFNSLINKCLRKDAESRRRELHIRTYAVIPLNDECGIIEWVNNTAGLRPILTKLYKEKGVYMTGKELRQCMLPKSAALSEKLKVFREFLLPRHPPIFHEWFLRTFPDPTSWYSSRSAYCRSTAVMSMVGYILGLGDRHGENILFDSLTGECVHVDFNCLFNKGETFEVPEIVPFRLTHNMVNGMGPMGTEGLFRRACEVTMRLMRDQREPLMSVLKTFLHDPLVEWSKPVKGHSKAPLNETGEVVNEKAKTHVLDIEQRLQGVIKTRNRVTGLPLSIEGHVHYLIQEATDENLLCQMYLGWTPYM

The experiment addresses T1, full-length ATR (Homo sapiens, UniProt Q13535).
T1 construct: in the presence of 5 nM full-length ATR
Kind of experiment: ATR Inhibition Assay (radioactive-phosphate incorporation). It counts as biochemical. The settings on record: Ki(app); 5 nM full-length ATR, 10 μM ATP, 800 μM target peptide, 25° C. Summed up: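 After a 10-min pre-incubation of compound with 5 nM enzyme at 25 °C, ATP was added to start the reaction (final 10 μM [γ-33P]ATP, 800 μM peptide; Tris/HCl pH 7.5, MgCl2, DTT), which ran 24 h. Incorporated 33P was captured on phosphocellulose filters, and Ki(app) was fitted by non-linear regression.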
`CCC(=O)NC1[C@H]2CN(c3cnc(N)c(-c4nnc(-c5ccc(CNC)cc5)o4)n3)C[C@@H]12` (stereo partly drawn) [Compound I-358, N-[(1S,5R)-3-[5-amino-6-[5-[4-(methylaminomethyl)phenyl]-1,3,4-oxadiazol-2-yl]pyrazin-2-yl]-3-azabicyclo[3.1.0]hexan-6-yl]propanamide]: the Ki lay in the range of 0.1 to 1 µM.

Consider `Cc1ccc2nc(-c3nc(N4CCC(=O)CC4)cnc3N)[nH]c2c1` [Compound I-11, 1-(5-amino-6-(6-methyl-1H-benzo[d]imidazol-2-yl)pyrazin-2-yl)piperidin-4-one], for which the Ki fell in the range of 1 to 10 µM. With `Nc1ncc(C2=CCN(C(=O)OCc3ccccc3)CC2)nc1-c1nnc(-c2ccccc2)o1` [Compound I-257, benzyl 4-(5-amino-6-(5-phenyl-1,3,4-oxadiazol-2-yl)pyrazin-2-yl)-5,6-dihydropyridine-1(2H)-carboxylate] the figure was 0.1 to 1 µM.

For the compound `Nc1ncc(C2=CCN(c3nccs3)CC2)nc1-c1nc2ccccc2[nH]1` [Compound I-164, 3-(1H-benzo[d]imidazol-2-yl)-5-(1-(thiazol-2-yl)-1,2,3,6-tetrahydropyridin-4-yl)pyrazin-2-amine], the Ki is < 0.1 µM.

In the case of `Cc1ccc2nc(-c3nc(N4CCSCC4)cnc3N)[nH]c2c1` [Compound I-8, 3-(6-methyl-1H-benzo[d]imidazol-2-yl)-5-thiomorpholinopyrazin-2-amine], the Ki lay within 0.1 to 1 µM. Consider `Nc1ncc(N2CCN(c3nccs3)CC2)nc1-c1nc2ccccc2[nH]1` [Compound I-277], for which the Ki fell in the range of 0.1 to 1 µM. With `CC(C)S(=O)(=O)N1CCN(c2cnc(N)c(-c3nc4ccccc4[nH]3)n2)CC1` [Compound I-97, 3-(1H-benzo[d]imidazol-2-yl)-5-(4-(isopropylsulfonyl)piperazin-1-yl)pyrazin-2-amine] the figure was 0.1 to 1 µM. With `Nc1ncc(N2CCN(S(=O)(=O)c3ccoc3)CC2)nc1-c1nc2ccccc2[nH]1` [Compound I-269, 3-(1H-benzo[d]imidazol-2-yl)-5-(4-(furan-3-ylsulfonyl)piperazin-1-yl)pyrazin-2-amine] the figure was 0.1 to 1 µM. With `CCOC(=O)N1CCN(c2cnc(N)c(C(=O)Nc3ccccn3)n2)CC1` [Compound I-113, ethyl 4-(5-amino-6-(pyridin-2-ylcarbamoyl)pyrazin-2-yl)piperazine-1-carboxylate] the figure was 1 to 10 µM; with `Nc1ncc(N2CCN(C(=O)c3ccccc3)CC2)nc1-c1nc2ccccc2[nH]1` [Compound I-208, (4-(5-amino-6-(1H-benzo[d]imidazol-2-yl)pyrazin-2-yl)piperazin-1-yl)(phenyl)methanone], 0.1 to 1 µM; with `CCOC(=O)C1CC1c1cnc(N)c(-c2nnc(-c3ccccc3)o2)n1` (centres unmarked) [Compound I-337, Ethyl 2-(5-amino-6-(5-phenyl-1,3,4-oxadiazol-2-yl)pyrazin-2-yl)cyclopropanecarboxylate], 0.1 to 1 µM. Consider `CCNC(=O)C1[C@H]2CN(c3cnc(N)c(-c4nnc(-c5ccc(CNC)cc5)o4)n3)C[C@@H]12` (stereo partly drawn) [Compound I-350, (1R,5S)-3-[5-Amino-6-[5-[4-(methylaminomethyl)phenyl]-1,3,4-oxadiazol-2-yl]pyrazin-2-yl]-N-ethyl-3-azabicyclo[3.1.0]hexane-6-carboxamide], for which the Ki lay within 0.1 to 1 µM. With `CC(=O)C1(c2ccccc2)CCN(c2cnc(N)c(-c3nc4ccc(C)cc4[nH]3)n2)CC1` [Compound I-44, 1-(1-(5-amino-6-(6-methyl-1H-benzo[d]imidazol-2-yl)pyrazin-2-yl)-4-phenylpiperidin-4-yl)ethanone] the figure was 1 to 10 µM. Under `Nc1ncc(C2=CCN(S(=O)(=O)c3ccccc3)CC2)nc1-c1nnc(-c2ccccc2)o1` [Compound I-102, 3-(5-phenyl-1,3,4-oxadiazol-2-yl)-5-(1-(phenylsulfonyl)-1,2,3,6-tetrahydropyridin-4-yl)pyrazin-2-amine] stands < 0.1 µM; under `Cc1ccc2nc(-c3nc(N4CCN(c5ccccc5C#N)CC4)cnc3N)[nH]c2c1` [Compound I-50, 2-(4-(5-amino-6-(6-methyl-1H-benzo[d]imidazol-2-yl)pyrazin-2-yl)piperazin-1-yl)benzonitrile], 1 to 10 µM; under `Nc1ncc(C2=CCN(S(=O)(=O)C3CC3)CC2)nc1-c1nnc(-c2ccccc2)o1` [Compound I-122, 5-(1-(cyclopropylsulfonyl)-1,2,3,6-tetrahydropyridin-4-yl)-3-(5-phenyl-1,3,4-oxadiazol-2-yl)pyrazin-2-amine], < 0.1 µM. Under `Cc1ccc2nc(-c3nc(N4CCN(c5ccccc5)CC4)cnc3N)[nH]c2c1` [Compound I-30, 3-(6-methyl-1H-benzo[d]imidazol-2-yl)-5-(4-phenylpiperazin-1-yl)pyrazin-2-amine] stands 0.1 to 1 µM. Regarding `CCS(=O)(=O)N1CCN(c2cnc(N)c(-c3cc4ccccc4[nH]3)n2)CC1` [Compound I-61, 5-(4-(ethylsulfonyl)piperazin-1-yl)-3-(1H-indol-2-yl)pyrazin-2-amine], the Ki lay in the range of 1 to 10 µM. Under `CCS(=O)(=O)N[C@@H]1C2CN(c3cnc(N)c(-c4nnc(-c5ccc(CNC)cc5)o4)n3)C[C@@H]21` (some centres unmarked) [Compound I-369] stands < 0.1 µM; under `CC#CCOC(=O)N1CCN(c2cnc(N)c(C(=O)Nc3ccccn3)n2)CC1` [Compound I-252, but-2-ynyl 4-(5-amino-6-(pyridin-2-ylcarbamoyl)pyrazin-2-yl)piperazine-1-carboxylate], 1 to 10 µM. With `CC#CCOC(=O)N1CCN(c2cnc(N)c(-c3nc4ccccc4[nH]3)n2)CC1` [Compound I-272, but-2-ynyl 4-(5-amino-6-(1H-benzo[d]imidazol-2-yl)pyrazin-2-yl)piperazine-1-carboxylate] the figure was 1 to 10 µM; with `CCS(=O)(=O)N1CC2CN(c3cnc(N)c(-c4nc5ccccc5[nH]4)n3)CC2C1` (centres unmarked) [Compound I-295, 3-(1H-benzimidazol-2-yl)-5-(2-ethylsulfonyl-1,3,3a,4,6,6a-hexahydropyrrolo[3,4-c]pyrrol-5-yl)pyrazin-2-amine], 1 to 10 µM; with `Nc1ncc(N2CC=C(C(=O)O)CC2)nc1-c1nnc(-c2ccccc2)o1` [Compound I-288, 1-[5-amino-6-(5-phenyl-1,3,4-oxadiazol-2-yl)pyrazin-2-yl]-3,6-dihydro-2H-pyridine-4-carboxylic acid], 0.1 to 1 µM. Under `CCC(=O)N1CCN(c2cnc(N)c(-c3nnc(-c4ccc(CNC)cc4)o3)n2)CC1` [Compound I-327, 1-[4-[5-Amino-6-[5-[4-(methylaminomethyl)phenyl]-1,3,4-oxadiazol-2-yl]pyrazin-2-yl]piperazin-1-yl]propan-1-one] stands < 0.1 µM; under `Nc1ncc(N2CCN(CC(=O)N3CCOCC3)CC2)nc1-c1nnc(-c2ccccc2)o1` [Compound I-303, 2-[4-[5-amino-6-(5-phenyl-1,3,4-oxadiazol-2-yl)pyrazin-2-yl]piperazin-1-yl]-1-morpholino-ethanone], 0.1 to 1 µM. As to `COCCOC(=O)N1CCN(c2cnc(N)c(-c3nnc(-c4ccccc4)o3)n2)CC1` [Compound I-221, 2-methoxyethyl 4-(5-amino-6-(5-phenyl-1,3,4-oxadiazol-2-yl)pyrazin-2-yl)piperazine-1-carboxylate], the Ki was in the range of 0.1 to 1 µM. Under `CC#CCOC(=O)N1CCN(c2cnc(N)c(-c3nnc(-c4ccccc4)o3)n2)CC1` [Compound I-246, but-2-ynyl 4-(5-amino-6-(5-phenyl-1,3,4-oxadiazol-2-yl)pyrazin-2-yl)piperazine-1-carboxylate] stands 0.1 to 1 µM; under `COCCOCC(=O)N1CCN(c2cnc(N)c(-c3nnc(-c4ccccc4)o3)n2)CC1` [Compound I-178, 1-(4-(5-amino-6-(5-phenyl-1,3,4-oxadiazol-2-yl)pyrazin-2-yl)piperazin-1-yl)-2-(2-methoxyethoxy)ethanone], 0.1 to 1 µM. Under `Nc1ncc(C2=CCN(C(=O)C3CC3)CC2)nc1-c1nnc(-c2ccccc2)o1` [Compound I-285, [4-[5-amino-6-(5-phenyl-1,3,4-oxadiazol-2-yl)pyrazin-2-yl]-3,6-dihydro-2H-pyridin-1-yl]-cyclopropyl-methanone] stands < 0.1 µM; under `CNCc1ccc(-c2nnc(-c3nc(N4Cc5ccccc5C4)cnc3N)o2)cc1` [Compound I-321, 5-Isoindolin-2-yl-3-[5-[4-(methylaminomethyl)phenyl]-1,3,4-oxadiazol-2-yl]pyrazin-2-amine], 1 to 10 µM.

In the case of `Nc1ncc(N2CCN(C(=O)c3ccccc3)CC2)nc1C(=O)Nc1ccccn1` [Compound I-109, 3-amino-6-(4-(phenylcarbonyl)piperazin-1-yl)-N-(pyridin-2-yl)pyrazine-2-carboxamide], the Ki lay within 1 to 10 µM. In the case of `CCC(=O)N1CCN(c2cnc(N)c(-c3nnc(-c4ccc(CNC)cc4)o3)n2)C[C@H]1C` [Compound I-315, 1-[(2R)-4-[5-Amino-6-[5-[4-(methylaminomethyl)phenyl]-1,3,4-oxadiazol-2-yl]pyrazin-2-yl]-2-methyl-piperazin-1-yl]propan-1-one], the Ki fell in the range of 0.1 to 1 µM. `NCCS(=O)(=O)N1CC=C(c2cnc(N)c(-c3nc4ccccc4[nH]3)n2)CC1` [Compound I-313, 5-(1-(2-Aminoethylsulfonyl)-1,2,3,6-tetrahydropyridin-4-yl)-3-(1H-benzo[d]imidazol-2-yl)pyrazin-2-amine]: the Ki is 0.1 to 1 µM.

On to `CCS(=O)(=O)N1CCN(c2cnc(N)c(-c3nnc(-c4ccc(CNC)cc4)o3)n2)C[C@@H]1C` [Compound I-345, 5-[(35)-4-Ethylsulfonyl-3-methyl-piperazin-1-yl]-3-[5-[4-(methylaminomethyl)phenyl]-1,3,4-oxadiazol-2-yl]pyrazin-2-amine], for which the Ki was < 0.1 µM. Under `CCS(=O)(=O)N1CC2CN(c3cnc(N)c(-c4nc5ccc(C)cc5[nH]4)n3)CC2C1` (centres unmarked) [Compound I-158, 5-(5-(ethylsulfonyl)hexahydropyrrolo[3,4-c]pyrrol-2(1H)-yl)-3-(6-methyl-1H-benzo[d]imidazol-2-yl)pyrazin-2-amine] stands 0.1 to 1 µM.
